Our source for the chromatographic logP values is US11479565B2, “Process for preparing substituted imidazole derivatives” (BAYER AKTIENGESELLSCHAFT, priority 2018, dated 2022).

Data set [1] in a line: log P[a] by HPLC on reversed-phase column (C18), LC-UV in the acidic range. To be noted: 0.9 ml/l formic acid in water and 1.0 ml/l formic acid in acetonitrile, gradient 10% to 95% acetonitrile, EEC Directive 79/831 Annex V.A8. Type of data set: physicochemical. The procedure:
(§1) The log values were determined according to EEC Directive 79/831 Annex V.A8 by HPLC (high-performance liquid chromatography) on a reversed-phase column (C18) using the following methods: The log P[a] value is determined by LC-UV measurement in the acidic range using 0.9 mill formic acid in water and 1.0 ml/l formic acid in acetonitrile as mobile phases (linear gradient from 10% acetonitrile to 95% acetonitrile). Calibration was carried out using a homologous series of straight-chain alkan-2-ones (having 3 to 16 carbon atoms) with known log values. The values between successive alkanones are determined by linear regression.

Data set [2] can be described thus: log P[n] by HPLC on reversed-phase column (C18), LC-UV in the neutral range. Type of data set: physicochemical. Conditions: 79 mg/l ammonium carbonate in water and acetonitrile, gradient 10% to 95% acetonitrile, EEC Directive 79/831 Annex V.A8. How it is done: as §1, with “P[n]” for “P[a]”, “neutral” for “acidic”, “79 mg/l ammonium carbonate” for “0.9 mill formic acid”, “and” for “and 1.0 ml/l formic acid in”

The structures appear in SMILES notation.

Regarding `CCSc1c(-c2nc3cc(C(F)(F)F)nnc3n2C)nc(Br)n1C` [Example 1, 6-[2-bromo-5-(ethylsulfanyl)-1-methyl-1H-imidazol-4-yl]-7-methyl-3-(trifluoromethyl)-7H-imidazo[4,5-]pyridazine], the chromatographic logP turned out to be 3.14 in data set [1] and 3.01 in data set [2].

As to `CCSc1c(-c2nc3cc(C(F)(F)C(F)(F)F)nnc3n2C)nc(Br)n1C` [Example 2, 6-[2-bromo-5-(ethylsulfanyl)-1-methyl-1H-imidazol-4-yl]-7-methyl-3-(pentafluoroethyl)-7H-imidazo[4,5-c]pyridazine], the chromatographic logP in data set [1] came to 3.8; in data set [2] it was 3.66.

As to `CCS(=O)(=O)c1c(-c2nc3cc(C(F)(F)C(F)(F)F)nnc3n2C)nc(Br)n1C` [Example 3, 6-[2-bromo-5-(ethylsulfonyl)-1-methyl-1H-imidazol-4-yl]-7-methyl-3-(pentafluoroethyl)-7H-imidazo[4,5-c]pyridazine], the chromatographic logP came to 2.8 in data set [1] and 2.76 in data set [2].

As for `CCSc1c(-c2nc3cc(C(F)(F)C(F)(F)F)ncc3n2C)nc(Br)n1C` [Example 4, 2-[2-bromo-5-(ethylsulfanyl)-1-methyl-1H-imidazol-4-yl]-3-methyl-6-(pentafluoroethyl)-3H-imidazo[4,5-c]pyridine], the chromatographic logP in data set [1] came out at 3.63; in data set [2], 3.51.

Turning to `CCSc1c(-c2nc3cc(C(F)(F)C(F)(F)F)nnc3n2C)nc(-c2ccc(Cl)nn2)n1C` [Example 5, 6-[2-(6-chloropyridazin-3-yl)-5-(ethylsulfanyl)-1-methyl-1H-imidazol-4-yl]-7-methyl-3-(pentafluoroethyl)-7H-imidazo[4,5-c]pyridazine], the chromatographic logP in data set [1] is 4.13; in data set [2], 4.01.

With `CCSc1c(-c2nc3cc(C(F)(F)C(F)(F)F)nnc3n2C)nc(-c2ccc(C#N)cn2)n1C` [Example 6, 6-{5-(ethylsulfanyl)-1-methyl-4-[7-methyl-3-(pentafluoroethyl)-7H-imidazo[4,5-c]pyridazin-6-yl]-1H-imidazol-2-yl}nicotinonitrile], the chromatographic logP in data set [1] worked out at 4.32; in data set [2], 4.2.

Usually chromatographic logP stands for a lipophilicity value derived from retention on a column. A lower chromatographic logP goes with lower lipophilicity.
